Experimental data reported in patent US8680159B2, “Bradykinin 1 receptor modulating compounds” (Gruenenthal GmbH, priority 2010, dated 2014).

How the values were obtained:
[1] = biological target: T1, B1R receptor of the rat (CHO K1 cells stably transfected with the B1R gene of the rat) (Rattus norvegicus, UniProt P97583); experiment: Functional study on the bradykinin receptor 1 (B1R), Ca2+ fluorescence (Fluo-4) FLIPR/Novostar assay, rB1R cells; type: cell-based; conditions: CHO-K1, 10 μM, read-out: % inhibition (rat B1R) at 10 μM
T1 construct: expressed in transfected cells; host or cells: CHO K1 cells (Chinese hamster ovary), stably transfected
T1 sequence (P97583 1-337): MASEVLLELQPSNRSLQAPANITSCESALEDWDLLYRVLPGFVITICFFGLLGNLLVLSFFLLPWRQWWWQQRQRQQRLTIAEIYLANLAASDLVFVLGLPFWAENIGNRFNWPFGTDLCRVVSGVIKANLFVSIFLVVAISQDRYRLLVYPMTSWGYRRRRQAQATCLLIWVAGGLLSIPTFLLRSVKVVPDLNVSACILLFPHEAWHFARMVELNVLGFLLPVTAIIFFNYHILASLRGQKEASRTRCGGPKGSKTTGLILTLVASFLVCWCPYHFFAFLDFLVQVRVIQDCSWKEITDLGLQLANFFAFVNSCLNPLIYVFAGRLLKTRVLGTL
Method in brief: (§1)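 Stably transfected CHO K1 cells carrying human or rat B1R were Fluo-4 loaded and Ca2+ fluorescence read by FLIPR or Novostar. Compounds were added first at 10 μM for % activation, then the EC80 agonist was applied after 6-20 min (human: Lys-Des-Arg9-bradykinin; rat: Des-Arg9-bradykinin). % inhibition is relative to maximum achievable inhibition, and IC50 comes from concentration series.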

[2] = biological target: T2, human B1R receptor (CHO K1 cells stably transfected with the human B1R gene) (Homo sapiens, UniProt P46663); experiment: Functional study on the bradykinin receptor 1 (B1R), Ca2+ fluorescence (Fluo-4) FLIPR/Novostar assay, hB1R cells; type: cell-based; conditions: CHO-K1, read-out: % inhibition (human B1R) at 10 μM
T2 construct: expressed in transfected cells; host or cells: CHO K1 cells (Chinese hamster ovary), stably transfected
T2 sequence (P46663 1-353): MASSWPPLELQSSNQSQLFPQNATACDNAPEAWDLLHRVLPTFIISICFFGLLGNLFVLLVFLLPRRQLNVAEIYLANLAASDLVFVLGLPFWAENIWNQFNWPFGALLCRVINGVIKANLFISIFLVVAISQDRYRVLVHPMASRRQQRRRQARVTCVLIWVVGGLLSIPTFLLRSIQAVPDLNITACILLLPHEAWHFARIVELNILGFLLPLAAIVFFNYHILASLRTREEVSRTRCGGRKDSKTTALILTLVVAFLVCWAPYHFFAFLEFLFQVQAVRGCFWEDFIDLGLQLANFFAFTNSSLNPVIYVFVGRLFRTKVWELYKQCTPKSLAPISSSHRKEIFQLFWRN
Method in brief: as §1

| Compound | inhibition at 10 µM [1] | inhibition at 10 µM [2] |
| --- | --- | --- |
| Cc1cc(N2CCC(N(C)C(=O)c3ccc4c(c3)[C@H](NC(=O)c3c(F)cccc3Cl)CC4)CC2)nc(C)n1 [Example H-163, (3R)-3-[(2-Chloro-6-fluoro-benzoyl)amino]-N-[1-(2,6-dimethyl-pyrimidin-4-yl)-piperidin-4-yl]-N-methyl-2,3-dihydro-1H-indene-5-carboxylic acid amide] | 104% | 99% |
| CN(C(=O)c1ccc2c(c1)[C@H](NC(=O)c1cccc(F)c1Cl)CC2)C1CCN(c2ccncn2)CC1 [Example H-164, (3R)-3-[(2-Chloro-3-fluoro-benzoyl)amino]-N-methyl-N-(1-pyrimidin-4-yl-piperidin-4-yl)-2,3-dihydro-1H-indene-5-carboxylic acid amide] | 105% | 100% |
| Cc1cc(N2CCC(N(C)C(=O)c3ccc4c(c3)[C@H](NC(=O)c3ccc(F)cc3Cl)CC4)CC2)nc(C)n1 [Example H-165, (3R)-3-[(2-Chloro-4-fluoro-benzoyl)amino]-N-[1-(2,6-dimethyl-pyrimidin-4-yl)-piperidin-4-yl]-N-methyl-2,3-dihydro-1H-indene-5-carboxylic acid amide] | 105% | 100% |
| Cc1cc(N2CCC(N(C)C(=O)c3ccc4c(c3)[C@H](N(C(=O)c3ccccc3Cl)C(C)C)CC4)CC2)nc(C(C)C)n1 [Example H-166, (3R)-3-[(2-Chloro-benzoyl)-isopropyl-amino]-N-[1-(2-isopropyl-6-methyl-pyrimidin-4-yl)-piperidin-4-yl]-N-methyl-2,3-dihydro-1H-indene-5-carboxylic acid amide] | 55% | 100% |
| CCN(C(=O)c1ccc(F)cc1Cl)[C@@H]1CCc2ccc(C(=O)N(C)C3CCN(c4cc(C)nc(C)n4)CC3)cc21 [Example H-167, (3R)-3-[(2-Chloro-4-fluoro-benzoyl)-ethyl-amino]-N-[1-(2,6-dimethyl-pyrimidin-4-yl)-piperidin-4-yl]-N-methyl-2,3-dihydro-1H-indene-5-carboxylic acid amide] | 109% | 100% |
| Cc1cc(N2CCC(N(C)C(=O)c3ccc4c(c3)[C@H](N(C)C(=O)c3ccc(F)cc3Cl)CC4)CC2)nc(C)n1 [Example H-168, (3R)-3-[(2-Chloro-4-fluoro-benzoyl)-methyl-amino]-N-[1-(2,6-dimethyl-pyrimidin-4-yl)-piperidin-4-yl]-N-methyl-2,3-dihydro-1H-indene-5-carboxylic acid amide] | 104% | 100% |
| Cc1cc(N2CCC(N(C)C(=O)c3ccc4c(c3)[C@H](N(C)C(=O)c3ccccc3C)CC4)CC2)nc(C)n1 [Example H-169, (3R)-N-[1-(2,6-Dimethyl-pyrimidin-4-yl)-piperidin-4-yl]-N-methyl-3-[methyl-(2-methyl-benzoyl)-amino]-2,3-dihydro-1H-indene-5-carboxylic acid amide] | 106% | 100% |
| CCN(C(=O)c1ccccc1C)[C@@H]1CCc2ccc(C(=O)N(C)C3CCN(c4cc(C)nc(C)n4)CC3)cc21 [Example H-170, (3R)-N-[1-(2,6-Dimethyl-pyrimidin-4-yl)-piperidin-4-yl]-3-[ethyl-(2-methyl-benzoyl)-amino]-N-methyl-2,3-dihydro-1H-indene-5-carboxylic acid amide] | 106% | 100% |
| Cc1cc(N2CCC(N(C)C(=O)c3ccc4c(c3)[C@H](N(C)C(=O)c3cccnc3C(F)(F)F)CC4)CC2)nc(C)n1 [Example H-171, N-[(1R)-6-[[1-(2,6-Dimethyl-pyrimidin-4-yl)-piperidin-4-yl]-methyl-carbamoyl]-2,3-dihydro-1H-inden-1-yl]-N-methyl-2-(trifluoromethyl)pyridine-3-carboxylic acid amide] | 104% | 100% |
